Patent US5492919A, “5-HT4 receptor antagonists” (SmithKline Beecham p.l.c., priority 1991, dated 1996)

Legend:
[1] = target: T1, 5-HT4 receptor (Cavia porcellus, UniProt O70528); assay: 5-HT4 receptor antagonist activity: guinea pig colon (longitudinal muscle-myenteric plexus preparations), reduction of 5-HT-evoked contractions; format: cell-based; details: for activity in guinea pig colon, in words: relative to compounds generally active at pIC50 = 6 or more
T1 construct: Longitudinal muscle-myenteric plexus preparations, approximately 3 cm long, are obtained from the distal colon region; from tissue; host or cells: guinea pig distal colon, longitudinal muscle-myenteric plexus preparation
T1 sequence (O70528 whole entry): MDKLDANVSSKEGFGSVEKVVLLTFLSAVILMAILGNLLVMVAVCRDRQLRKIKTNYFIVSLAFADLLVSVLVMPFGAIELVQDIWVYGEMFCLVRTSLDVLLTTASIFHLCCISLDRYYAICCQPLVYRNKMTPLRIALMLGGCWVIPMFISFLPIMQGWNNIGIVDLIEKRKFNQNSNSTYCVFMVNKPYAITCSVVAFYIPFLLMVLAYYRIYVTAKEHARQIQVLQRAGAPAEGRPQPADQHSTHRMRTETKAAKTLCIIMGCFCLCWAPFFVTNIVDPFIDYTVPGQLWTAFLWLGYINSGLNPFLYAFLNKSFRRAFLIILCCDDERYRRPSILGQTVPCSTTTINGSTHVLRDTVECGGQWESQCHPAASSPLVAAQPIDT
Protocol: (§1) 5-HT4 RECEPTOR ANTAGONIST ACTIVITY
Male guinea-pigs, weighing 250-400 g are used. Longitudinal muscle-myenteric plexus preparations, approximately 3 cm long, are obtained from the distal colon region. These are suspended under a 0.5 g load in isolated tissue baths containing Krebs solution bubbled with 5% CO2 in O2 and maintained at 37° C. In all experiments, the Krebs solution also contains methiothepin 10^-7 M and granisetron 10^-6 M to block effects at 5-HT1, 5-HT2 and 5-HT3 receptors.
After construction of a simple concentration-response curve with 5-HT, using 30s contact times and a 15rain dosing cycle, a concentration of 5-HT is selected so as to obtain a contraction of the muscle approximately 40-70% maximum(10^-9 M approx). The tissue is then alternately dosed every 15 min with this concentration of 5-HT and then with an approximately equi-effective concentration of the nicotine receptor stimulant, dimethylphenylpiperazinium (DMPP). After obtaining consistent responses to both 5-HT and DMPP, increasing concentrations of a putative 5-HT4 receptor antagonist are then added to the bathing solution. The effects of this compound are then determined as a percentage reduction of the contractions evoked by 5-HT or by DMPP. […] A compound which reduces the response to 5-HT but not to DMPP is believed to act as a 5-HT4 receptor antagonist.

[2] = target: T2, 5-HT4 receptor (Sus scrofa, UniProt Q6Q253); assay: 5-HT4 receptor antagonist activity: piglet atria, piglet spontaneous beating screen; format: cell-based
T2 construct: functional antagonism (pKB)
T2 sequence (Q6Q253 1-402): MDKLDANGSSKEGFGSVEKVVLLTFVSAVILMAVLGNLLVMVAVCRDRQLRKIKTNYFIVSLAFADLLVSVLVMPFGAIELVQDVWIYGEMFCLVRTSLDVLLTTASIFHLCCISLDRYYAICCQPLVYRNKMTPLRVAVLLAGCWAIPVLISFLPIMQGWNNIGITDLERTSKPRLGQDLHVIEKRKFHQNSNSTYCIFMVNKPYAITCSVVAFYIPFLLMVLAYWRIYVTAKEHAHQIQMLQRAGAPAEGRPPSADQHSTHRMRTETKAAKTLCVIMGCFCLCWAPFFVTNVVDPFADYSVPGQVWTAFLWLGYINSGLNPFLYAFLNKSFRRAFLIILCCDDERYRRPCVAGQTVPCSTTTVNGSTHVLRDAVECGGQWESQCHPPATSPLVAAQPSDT
Protocol: as §1
Compounds were tested in the piglet spontaneous beating screen (Naunyn-Schmiedeberg's Arch. Pharmacol 342, 619-622). pKB (-log10 KB) value for the compound of Example 21 of EP-A-328200 was 7.6.

Row | activity in guinea pig colon, in words [1] | IC50 ([1]; 5-HT approx 10^-9 M, Krebs solution with methiothepin 10^-7 M and granisetron 10^-6 M, 37° C, read-out: pIC50 (-log concentration of antagonist which reduces the contraction by 50%) (converted)) | pKB (-log10 KB) [2] | SMILES
1 | particularly good activity |  |  | CCCCN(C)CCCc1nc(-c2cn(C)c3ccccc23)no1 [Example E1, 5-[3-(N-Methylbutylamino)propyl]-3-[1-methyl-1H-indol-3-yl]-1,2,4-oxadiazole]
2 |  | 50.1 nM | 7.6 | Cn1cc(-c2noc(CCN3CCCCC3)n2)c2ccccc21 [Example 21 of EP-A-328200, 1-methyl-3-[5-(2-(1-piperidyl)ethyl)-1,2,4-oxadiazol-3-yl]indole]
3 | particularly good activity |  |  | CCCCN1CCC(Cc2nc(-c3cn(C)c4ccccc34)no2)CC1 [Example E3]
